Data set [1] relates to Mast cells (MC). Description: Anti-FcεRI-induced MC degranulation (β-hexosaminidase release). The settings on record: for Mean percent degranulation, TGA + XL: TGA Treatment @ 10 μg/ml, Exp 1-5 and Average (±SD). The class given is cell-based, human. Here is the method: (§1) MC are a component of the inflammatory response. As such, cultures of human Mast Cells can be used for screening the activity of different fullerene derivatives to evaluate their potential activity in animal models. In this example, human skin tissue was received from the Cooperative Human Tissue Network and MC purified and cultured as described in Kepley, C. L. Int. Arch. Allergy Immunol. 138, 29-39 (2005). The MC were cultured in media containing stem cell factor which is removed from the culture 24 hours prior to experimentation.
For activation, MC were suspended in fresh medium (without cytokines) and incubated for 16 hours with or without fullerene derivatives at 37° C. in a 6% CO2 incubator. […] The next morning, cells were washed and stimulated with anti-FcεRI Abs (3B4; 1 μg/ml) for 30 minutes (β-hexosaminidase) or overnight (GM-CSF) at 37° C. in a 6% CO2 incubator and mediator release measured as described in Zhao, W., Kepley, C. L., Morel, P. A., Okumoto, L. M., Fukuoka, Y., and Schwartz, L. B. J Immunol. 177, 694-701 (2006). All MC mediator release studies were performed in triplicate.
(§2) Cells were cultured with fixed concentrations of a fullerene derivative (10 μg/ml; FIGS. 8A and 9A) or different concentrations (FIGS. 8B and 9B) for 16 h, washed and stimulated for 30 min (FIGS. 8A and 8B) or 24 hours (FIGS. 9A and 9B) with optimal concentrations of αanti-FcεRI Abs (3B4; 1 μg/ml). Cells were centrifuged and β-hexosaminidase release and GMCSF levels determined by ELISA.

The test system of data set [2] is Mast cells (MC). Description: Anti-FcεRI-induced GM-CSF cytokine production in MC. The class given is cell-based, human. The conditions noted are these: maximum inhibition set to 100%. How it is done: as §1
For activation, MC were suspended in fresh medium (without cytokines) and incubated for 16 hours with or without fullerene derivatives at 37° C. in a 6% CO2 incubator. […] The next morning, cells were washed and stimulated with anti-FcεRI Abs (3B4; 1 μg/ml) for 30 minutes (β-hexosaminidase) or overnight (GM-CSF) at 37° C. in a 6% CO2 incubator and mediator release measured as described in Zhao, W., Kepley, C. […]
as §2

Another data set concerns ROS. Description: FcεRI-induced ROS (DCF) in MC. The conditions noted are these: 10 μg/mL overnight; anti-FcεRI 1 μg/mL. The class given is cell-based, human. Here is the method: MC were pre-treated with or without fullerene derivatives as above, washed with Tyrodes buffer supplemented with BSA, and incubated with Fura-2 AM (2 μM) for 30 minutes at 37° C. Cells were washed, stimulated with anti-FcεRI, and calcium flux measured in real time on a Perkin Elmer LS55 Spectrofluorometer. For ROS production, cells were exposed to fullerene derivatives as above. After washing, cells were re-suspended in X-Vivo medium containing 5 μM dichlorodihydrofluorescein (DCF) at 37° C. for 30 minutes, washed, and activation-induced changes in mean fluorescence was measured with excitation at 502 nm and emission at 523 nm for 15 minutes (19). The data is presented as fluorescence intensity of the 523 nm emission over time. All experiments were performed in triplicate and degranulation was measured in parallel.
Cells were incubated with or without fullerene derivative (10 μg/mL) overnight. The next day cells were challenged with anti-FcεRI (3B4; 1 μg/mL) and calcium stores release was determined by the 340/380 nm ratio (FIGS. 11A and 11B) and ROS measured by DCF detection at 523 nm (FIGS. 11C and 11D). FIGS. 11A and 11C contain cells incubated with the TGA fullerene derivative, and FIGS. 11B and 11D contain cells incubated with the Inos fullerene derivative (10 μg/mL). […]

Data set [3] relates to E74-like factor 2 (ELF-2). Description: ELF-2 gene expression (microarray) in MC. The class given is cell-based, human. The settings on record: gene level. Here is the method:
(§3) Mast cells (1×10^7 cell/condition; each condition performed in triplicate) were incubated with or without fullerene derivatives as above and incubated with or without anti-FcεRI antibodies for 10 minutes, supernatants were removed (to remove pre-formed mediators), and fresh warm medium containing anti-FcεRI antibodies (14 ml) added for 2 hours. Cells were centrifuged, the supernatant and the pellet immediately frozen and microarray performed using the Human Whole Genome OneArray™ gene expression profiling service (Phalanx Biotech Group). Separate samples, assayed in parallel were lysed and protein expression analyzed by Western blotting or flow cytometry (CD45) as described in Kepley, C. L., Pfeiffer, J., Wilson, B. W., Schwartz, L. B., and Oliver, J. M. J. Leukocyte Biol. 64, 474-483 (1998).
In order to examine the genes most affected by fullerene derivative preincubation the resulting values were sorted and filtered the following way. First, the mean (±SD) of the six values from each condition for each of the 30,970 genes was calculated. Second, only normalized value intensities of >100 were included so that follow up detection of protein levels would be more likely to be successful. […]

A further data set concerns Fyn. Description: Fyn protein level in MC. The class given is cell-based, human. The conditions noted are these: pre-incubated with TGA. How it is done: as §3
Downregulation observed at the gene level was verified at the protein level for several representative molecules using Western blotting or flow cytometry.

Data set [4] relates to mice. Description: Liver toxicity: serum ALT and AST activity after FD injection. Type of data set: in vivo. The settings on record: tail vein injection. How it is done:
To examine potential toxicity, alanine aminotranferease (ALT) and aspartate aminotransferase (AST) were measured in serum. These enzymes leak out into the general circulation when the liver is injured. Mice were treated with or without 1000 μg/100 μl (50 times more than used for the in vivo study) of TGA or Inos by tail vein injection and i.p. After two and 14 days mice were sacrificed and blood, obtained by cardiac puncture. ALT and AST activity were measured as described in Booth, G., Newham, P., Barlow, R., Raines, S., Zheng, B., and Han, S. Autoimmunity 41, 512-521 (2008). Data is presented as an average of 4 (Untreated) or 4 (Treated) mice±Standard Deviation.

Data set [5] deals with mice. Description: In vivo administration of TGA for three weeks: behavior, gross pathology. The settings on record: i.v. daily; 200 ng/three weeks. The source says: Taken together, the derivatives described herein are not cytotoxic to several cell lines tested and appear to have no acute in vivo cytotoxic effects.

Values joined by “and” are separate entries in the source; they are usually repeats but may differ in a detail not shown here. Identical values can stand only once.

Turning to C70-tetraglycolic acid [TGA], the “Mean percent degranulation, TGA + XL” value in the data set with Mast cells (MC) [1] was 52.7% and 39.1% and 50.1% and 53.4% and 40.1%; in the data set with Mast cells (MC) [1] (mean) it was 47.1 (±6.9) percent. The “IC50 (degranulation)” value with Mast cells (MC) [1] (maximum inhibition set to 100%) is 10.9 (±3.5) μg/ml. Moreover, in the data set with Mast cells (MC) [2], the “IC50 (GMCSF-cytokine production)” value is 3.3 (±0.6) μg/ml. Also, the “FcεRI-induced ROS” value in the data set on ROS was “inhibited”. In data set [3], this substance came in with an ELF-2 downregulated of 47%. Further, the Fyn protein levels entry with Fyn was “no change”. Also, the “Alanine aminotransferase (ALT) Activity” value with mice [4] (Day 2) stood at 29.2; in the data set with mice [4] (Day 14), 36.7. Further, the results for the “Aspartate aminotransferase (AST) Activity” value in the data set with mice [4] (Day 2) and with mice [4] (Day 14) were 8.5 and 29.8, respectively. Besides, in the data set on mice [5], the behavior entry is reported as “no notable differences in behavior”. Also, in the data set with mice [5], the gross pathological examination result is on record as “no abnormalities”.

The values above are taken from US20110251158A1, “FULLERENE THERAPIES FOR INFLAMMATION AND INHIBITION OF BUILD-UP OF ARTERIAL PLAQUE” (Luna Innovations Incorporated, priority 2008, published 2011).
